Tested on: Candida albicans ATCC 64548
Test: Paper disk method, enhancing action for activities of azole antifungal agents
Assay type: cell-based
Conditions: 24 hours; for Inhibition activity (inhibition ring mm) C. albicans ATCC 64548 GYM / Transparency of the inhibition ring C. albicans ATCC 64548 GYM: miconazole 0.03 μg/ml
Method: Test organisms used were Candida albicans ATCC 64548, fluconazole resistant Candida albicans ATCC 64550 and Aspergillus niger ATCC 6275. Candida spp. were cultured in Waksman broth (glucose 2.0%, peptone 0.5%, dry yeast 0.3%, meat extract 0.5%, NaCl 0.5% and CaCO3 0.3%, pH 7.0) at 27° C. for 40 hours, then 0.1% thereof was inoculated on GY agar medium (glucose 1.0%, yeast extract 0.5% and agar 0.8%, pH 6.0). Spore suspension 0.2% of Aspergillus niger ATCC 6275 was inoculated on GY agar medium.
Azole antifungal agents used were miconazole (Sigma Inc., the U.S.) and fluconazole (ICN Pharmaceuticals, Inc., the U.S.), and were added at concentrations without affecting growth on each test organisms follows.
Candida albicans ATCC 64548: miconazole 0.03 μg/ml or fluconazole 0.5 μg/ml.
In the above medium, a medium added with miconazole to GY medium (control) is designated as GYM, and a medium added with fluconazole is designated as GYF. Activities were assessed by means of paper disk method (thickness: 8 mm, ADVANTEC MFS INC., Japan). Diameter of inhibition ring is expressed with mm unit after culturing Candida spp. for 24 hours and Aspergillus niger ATCC 6275 for 48 hours. Transparency of the inhibition ring is assessed with 5 degrees of A, B, C, D and E (transparence<A<B<C<D<E<opaque).

[1] = 100 μg/8 mm disk, GYF, fluconazole 0.5 μg/ml

| Compound | Inhibition activity (inhibition ring mm) C. albicans ATCC 64548 GYM (10 μg/8 mm disk) | Transparency of the inhibition ring C. albicans ATCC 64548 GYM (10 μg/8 mm disk) | Inhibition activity (inhibition ring mm) C. albicans ATCC 64548 GYM (50 μg/8 mm disk) | Transparency of the inhibition ring C. albicans ATCC 64548 GYM (50 μg/8 mm disk) | Inhibition activity (inhibition ring mm) C. albicans ATCC 64548 GYM (100 μg/8 mm disk) | Transparency of the inhibition ring C. albicans ATCC 64548 GYM (100 μg/8 mm disk) | Inhibition activity (inhibition ring mm) C. albicans ATCC 64548 GYF [1] | Transparency of the inhibition ring C. albicans ATCC 64548 GYF [1] |
| --- | --- | --- | --- | --- | --- | --- | --- | --- |
| 2′,4″,13-Tri-O-anhydro-pseudoerythromycin A 6,9-hemiketal [Compound 719] | 9 mm | E (Growth of test organism was inhibited 35% or less.) | 10 mm | E (Growth of test organism was inhibited 35% or less.) | 13 mm | E (Growth of test organism was inhibited 35% or less.) | – | – |
| CCC(O)C(C)(O)C1OC(=O)C(C)C(OC2CC(C)(OC)C(O)C(C)O2)C(C)C(OC2OC(C)CC(N(C)CCN(C)C3CC(C)OC(OC4C(C)C(OC5CC(C)(OC)C(O)C(C)O5)C(C)C(=O)OC(C(C)(O)C(O)CC)C(C)C5=C(C)CC4(C)O5)C3O)C2O)C2(C)CC(C)=C(O2)C1C (centres unmarked) [Compound 741, 3′-de-N-methyl-3′-N-{-amino-(3′-de-N-methyl-anhydro-pseudoerythromycin A 6,9-hemiketal)}ethyl-anhydro-pseudoerythromycinA 6,9-hemiketal] | – | – | – | – | 14 mm | D (Growth of test organism was inhibited 35% or more and 55% or less.) | – | – |
| CCC1OC(=O)C(C)C(OC2CC(C)(OC)C(O)C(C)O2)C(C)C(OC2OC(C)CC(N(C)CC=CCN(C)C3CC(C)OC(OC4C(C)C(OC5CC(C)(OC)C(O)C(C)O5)C(C)C(=O)OC(CC)C(C)(O)C(O)C(C)C(=O)C(C)CC4(C)OC)C3O)C2O)C(C)(OC)CC(C)C(=O)C(C)C(O)C1(C)O (centres unmarked) [Compound 758, 3′-de-N-methyl-3′-N-{4-amino-(3′-de-N-methyl-clarythromycin A)}-2(E)-butenyl-clarythromycin A] | 11 mm | E (Growth of test organism was inhibited 35% or less.) | 12 mm | D (Growth of test organism was inhibited 35% or more and 55% or less.) | – | – | 15 mm | E (Growth of test organism was inhibited 35% or less.) |
| CCC1OC(=O)C(C)C(OC2CC(C)(OC)C(O)C(C)O2)C(C)C(OC2OC(C)CC(N(C)C)C2O)C(C)(O)CC(C)C(=NOCC=CCON=C2C(C)CC(C)(O)C(OC3OC(C)CC(N(C)C)C3O)C(C)C(OC3CC(C)(OC)C(O)C(C)O3)C(C)C(=O)OC(CC)C(C)(O)C(O)C2C)C(C)C(O)C1(C)O (centres unmarked) [Compound 759, 9(E)-4-{9(E)-oxime-erythromycin A}-2-butenyloxime-erythromycin A] | – | – | – | – | 13 mm | D (Growth of test organism was inhibited 35% or more and 55% or less.) | – | – |
| CCC1OC(=O)C(C)C(OC2CC(C)(OC)C(O)C(C)O2)C(C)C(OC2OC(C)CC(N(C)C)C2O)C(C)(O)CC(C)C(=NOCC=CCNCCNCC=CCON=C2C(C)CC(C)(O)C(OC3OC(C)CC(N(C)C)C3O)C(C)C(OC3CC(C)(OC)C(O)C(C)O3)C(C)C(=O)OC(CC)C(C)(O)C(O)C2C)C(C)C(O)C1(C)O (centres unmarked) [Compound 761] | – | – | – | – | 14 mm | E (Growth of test organism was inhibited 35% or less.) | – | – |
| CCC1OC(=O)C(C)C(OC2CC(C)(OC)C(O)C(C)O2)C(C)C(OC2OC(C)CC(N(C)C)C2O)C(C)(O)CC(C)C(=NOCCCCON=C2C(C)CC(C)(O)C(OC3OC(C)CC(N(C)C)C3O)C(C)C(OC3CC(C)(OC)C(O)C(C)O3)C(C)C(=O)OC(CC)C(C)(O)C(O)C2C)C(C)C(O)C1(C)O (centres unmarked) [Compound 764, 9(E)-4-{9(E)-oxime-erythromycin A}-2(E)buthyloxime-erythromycin A] | – | – | 9 mm | E (Growth of test organism was inhibited 35% or less.) | – | – | – | – |

From patent publication US20050176655A1, “Novel macrolide derivatives havaing effect of potentiating antifungal activity” (priority 2002, published 2005)
